Source: ChEMBL document CHEMBL1151436, “In vitro evaluation of the activities of telavancin, cefazolin, and vancomycin against methicillin-susceptible and methicillin-resistant Staphylococcus aureus in peritoneal dialysate” (Antimicrob Agents Chemother, 2007)
Values after ≈ are worked out from the molar mass of the structure shown. Active and inactive are the calls of the source. The rule behind the calls is not given here.

Experiments:
[1] = tested on: Staphylococcus aureus; test: Antibacterial activity against methicillin-susceptible Staphylococcus aureus ATCC 29213 in peritoneal dialysis fluid at 10 ug/mL administered as bolus dose 2 hrs after infection measured after 24 hrs by time-kill study; assay type: functional, organism-based
[2] = Protein binding in mouse plasma at 0.1 to 100 ug/mL by equilibrium dialysis; assay type: ADME, cell-free; conditions: read-out: PB (converted)
[3] = tested on: Staphylococcus aureus; test: Antibacterial activity against methicillin-susceptible Staphylococcus aureus ATCC 29213 in peritoneal dialysis fluid at 50 ug/mL administered as bolus dose 2 hrs after infection measured after 24 hrs by time-kill study; assay type: functional, organism-based
[4] = tested on: Staphylococcus aureus; test: Antibacterial activity against methicillin-resistant Staphylococcus aureus ATCC 33592 in peritoneal dialysis fluid at 10 ug/mL administered as bolus dose 2 hrs after infection measured after 24 hrs by time-kill study; assay type: functional, organism-based
[5] = tested on: Staphylococcus aureus; test: Antibacterial activity against methicillin-resistant Staphylococcus aureus ATCC 33592 in peritoneal dialysis fluid at 50 ug/mL administered as bolus dose 2 hrs after infection measured after 24 hrs by time-kill study; assay type: functional, organism-based
[6] = tested on: Staphylococcus aureus; test: Antibacterial activity against methicillin-susceptible Staphylococcus aureus ATCC 29213 in peritoneal dialysis fluid administered as bolus dose 2 hrs after infection measured after 24 hrs by broth dilution method; assay type: functional
[7] = tested on: Staphylococcus aureus; test: Antibacterial activity against methicillin-resistant Staphylococcus aureus ATCC 33592 in peritoneal dialysis fluid administered as bolus dose 2 hrs after infection measured after 24 hrs by broth dilution method; assay type: functional

SMILES	Activity [1]	fraction unbound [2]	Activity [3]	Activity [4]	Activity [5]	MIC [6]	MIC [7]
CCCCCCCCCCNCCN[C@@]1(C)C[C@H](O[C@H]2[C@H](Oc3c4cc5cc3Oc3ccc(cc3Cl)[C@@H](O)[C@@H](NC(=O)[C@@H](CC(C)C)NC)C(=O)N[C@@H](CC(N)=O)C(=O)N[C@H]5C(=O)N[C@H]3C(=O)N[C@H](C(=O)N[C@H](C(=O)O)c5cc(O)c(CNCP(=O)(O)O)c(O)c5-c5cc3ccc5O)[C@H](O)c3ccc(c(Cl)c3)O4)O[C@H](CO)[C@@H](O)[C@@H]2O)O[C@@H](C)[C@H]1O [TELAVANCIN]	Active	0.05	Active	Active	Active	0.25 µg/mL (≈ 0.142 µM)	0.125 µg/mL (≈ 0.0712 µM)
Cc1nnc(SCC2=C(C(=O)O)N3C(=O)[C@@H](NC(=O)Cn4cnnn4)[C@H]3SC2)s1 [CEFAZOLIN]						0.5 µg/mL (≈ 1.1 µM)	> 16 µg/mL
